# From US20110172163A1, “Novel Protease Inhibitors” (QUEENSLAND UNIVERSITY OF TECHNOLOGY, priority 2008, published 2011)
# Bridge positions count the residues as written; N and C are the ends. Peptide text beside a SMILES is read from it.
# Target: T1, bovine β-trypsin (Bos taurus, UniProt P00760)
# T1 construct: bovine β-trypsin (20 ng); purchased Sigma Chemicals
# T1 sequence (P00760 24-246): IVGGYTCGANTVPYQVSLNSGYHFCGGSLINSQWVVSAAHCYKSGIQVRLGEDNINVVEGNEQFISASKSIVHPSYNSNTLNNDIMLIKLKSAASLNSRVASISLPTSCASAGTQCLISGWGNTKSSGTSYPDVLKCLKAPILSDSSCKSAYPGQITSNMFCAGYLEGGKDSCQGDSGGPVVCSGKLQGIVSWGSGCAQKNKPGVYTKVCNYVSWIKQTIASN
# Assay: Inhibitor kinetics: trypsin amidolytic activity
# Format: biochemical
# Conditions: trypsin; read-out: IC50
# Protocol: All enzymes and substrates were obtained from Sigma Chemicals if not otherwise specified. […] The release of pNa moiety was monitored as described above for 7 minutes with each point being the average of three independent triplicate reactions. IC50 was determined using the Prism 5 software suite (GraphPad software Inc.).
smiles,measurement,value
CC[C@H](C)[C@@H]1NC(=O)[C@@H]2CCCN2C(=O)[C@@H]2CCCN2C(=O)[C@H]([C@@H](C)CC)NC(=O)[C@H](CO)NC(=O)[C@H](CCCNC(=N)N)NC(=O)[C@H](CCC(N)=O)NC(=O)[C@@H]2CSSC[C@H](NC1=O)C(=O)N[C@@H](Cc1ccccc1)C(=O)N1CCC[C@H]1C(=O)N[C@@H](CC(=O)O)C(=O)NCC(=O)N[C@@H](Cc1ccccc1)C(=O)N2 [SFTI-FCQR] (cyclo(GFCQRSIPPICFPD); disulfide 3-11),IC50,4.06 ± 1.09 µM
